Laboratory results from patent US20250388623A1, “PEPTIDE INHIBITOR AND USE THEREOF” (CHENGDU BRILLIANT INSPIRATION BIOTHERAPEUTICS CO., LTD, priority 2022, published 2025).
Bridge positions count the residues as written; N and C are the ends. Peptide text beside a SMILES is read from it.

How the values were obtained:
[1] = target: T1, binding of TSP-1 protein to CD36, a TSP-1 receptor protein (Homo sapiens, UniProt P07996); test: ELISA: blocking of CD36 binding to TSP-1 protein; details: for inhibition at 100 µM: 3 h, 100 μM polypeptide, 0.25 μg/mL Fc-tagged CD36, blocking of CD36 binding to TSP-1, read-out: Blocking rate (Mean, %); for IC50: concentrations 0-100 μM
T1 construct: purchased novoprotein (TSP-1); R&D Systems (Fc-tagged CD36) CU45 (TSP-1); 1955-CD-050 (CD36-Fc)
Outline: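 Plate-bound TSP-1 (2 μg/mL coat) incubated 3 h at 37 °C with Fc-tagged CD36 (0.25 μg/mL final) ± polypeptide (100 μM final single-point; 0.5–100 μM for IC50); bound CD36 detected with FITC anti-Fc antibody fluorescence. Blocking rate = (control − treated)/control × 100%; IC50 from concentration dependence.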

[2] = test system: active TGF-β; test: Active TGF-β level in lung tissue, bleomycin (BLM) mouse lung fibrosis model; assay type: in vivo; details: single intratracheal dose 3 mg/kg on Day 7, lung 24 h later, BLM model group = 100.00
Outline: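 Male C57/6J mice (6–8 wk) received intratracheal bleomycin 0.7 USP/kg on Day 1, then a single intratracheal peptide dose of 3 mg/kg on Day 7, with saline for the model group. The value is the ratio of peptide group to model group.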

T1 sequence (P07996 19-1170): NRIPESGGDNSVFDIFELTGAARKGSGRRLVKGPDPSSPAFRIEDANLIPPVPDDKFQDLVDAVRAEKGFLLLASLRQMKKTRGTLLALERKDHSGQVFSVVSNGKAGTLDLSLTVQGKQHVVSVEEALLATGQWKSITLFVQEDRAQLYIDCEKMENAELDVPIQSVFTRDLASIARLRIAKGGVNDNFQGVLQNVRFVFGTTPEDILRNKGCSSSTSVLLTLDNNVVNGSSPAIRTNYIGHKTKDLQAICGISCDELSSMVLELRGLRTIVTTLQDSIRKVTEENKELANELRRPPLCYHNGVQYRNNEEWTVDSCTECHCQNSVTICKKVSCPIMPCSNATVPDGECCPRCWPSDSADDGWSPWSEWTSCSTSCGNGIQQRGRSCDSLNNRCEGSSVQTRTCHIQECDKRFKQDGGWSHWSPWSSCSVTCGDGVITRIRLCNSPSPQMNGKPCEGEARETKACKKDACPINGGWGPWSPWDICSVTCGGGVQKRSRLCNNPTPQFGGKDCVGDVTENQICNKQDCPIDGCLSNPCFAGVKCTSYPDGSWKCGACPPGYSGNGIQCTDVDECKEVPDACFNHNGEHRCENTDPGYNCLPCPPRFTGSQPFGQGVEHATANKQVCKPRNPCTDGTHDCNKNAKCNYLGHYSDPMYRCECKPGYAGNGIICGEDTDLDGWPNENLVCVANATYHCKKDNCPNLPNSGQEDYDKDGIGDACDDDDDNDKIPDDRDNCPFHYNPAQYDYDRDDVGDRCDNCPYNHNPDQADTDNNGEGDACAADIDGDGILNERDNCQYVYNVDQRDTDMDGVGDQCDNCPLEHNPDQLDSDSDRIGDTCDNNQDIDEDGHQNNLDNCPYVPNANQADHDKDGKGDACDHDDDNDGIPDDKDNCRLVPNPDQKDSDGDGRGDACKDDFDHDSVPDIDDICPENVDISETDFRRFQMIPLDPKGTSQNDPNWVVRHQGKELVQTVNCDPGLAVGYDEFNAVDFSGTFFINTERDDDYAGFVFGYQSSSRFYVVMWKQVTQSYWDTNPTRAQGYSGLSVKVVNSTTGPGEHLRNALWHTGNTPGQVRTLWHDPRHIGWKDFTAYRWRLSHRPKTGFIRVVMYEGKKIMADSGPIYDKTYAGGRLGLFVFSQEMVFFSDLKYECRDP

inhibition at 100 µM [1] [%] | IC50 [1] [µM] | Molecule | active TGF-β content in lung tissue, ratio to model group, Mean(%) ([2]; 3 mg/kg) | active TGF-β content in lung tissue, ratio to model group, Mean(%) [2] [%]
37.5 |  | C[C@@H]1NC(=O)[C@H](CC(=O)O)NC(=O)[C@H](CCC(N)=O)NC(=O)[C@H]([C@@H](C)O)NC(=O)[C@H](CC(N)=O)NC(=O)[C@H](CC(=O)O)NC(=O)[C@H](CCC(=O)O)NC1=O [SEQ ID NO: 40, cyclo[Thr-Gln-Asp-Ala-Glu-Asp-Asn]] (cyclo(AEDNTQD)) | 68.27 | 
52 | 3.62 | CC(=O)N[C@H](C(=O)N[C@H]1CSSC[C@@H](C(=O)O)NC(=O)[C@H](CC(N)=O)NC(=O)[C@H](CC(=O)O)NC(=O)[C@H](CCC(=O)O)NC(=O)[C@H](C)NC(=O)[C@H](CC(=O)O)NC1=O)[C@@H](C)O [SEQ ID NO: 43, Ac-Thr-cyclo[Cys-Asp-Ala-Glu-Asp-Asn-Cys]] (Ac-TCDAEDNC-OH; disulfide 2-8) |  | 75.92
52.9 | 6.71 | CC(=O)N[C@H](C(=O)N[C@H]1CSSC[C@@H](C(N)=O)NC(=O)[C@H](CC(N)=O)NC(=O)[C@H](CC(=O)O)NC(=O)[C@H](CCC(=O)O)NC(=O)[C@H](C)NC(=O)[C@H](CC(=O)O)NC1=O)[C@@H](C)O [SEQ ID NO: 44, Ac-Thr-cyclo[Cys-Asp-Ala-Glu-Asp-Asn-Cys]-NH2] (Ac-TCDAEDNC-NH2; disulfide 2-8) |  | 81.73
56.1 |  | C[C@@H]1NC(=O)[C@H]([C@@H](C)O)NC(=O)[C@H](CC(N)=O)NC(=O)[C@H](CC(=O)O)NC(=O)[C@H](CCC(=O)O)NC(=O)[C@@H]2CCCN2C(=O)[C@H](CC(=O)O)NC(=O)[C@H](CCC(N)=O)NC(=O)[C@H]([C@@H](C)O)NC(=O)[C@H](CO)NC1=O [SEQ ID NO: 46, cyclo[Thr-Gln-Asp-Pro-Glu-Asp-Asn-Thr-Ala-Ser]] (cyclo(ASTQDPEDNT)) |  | 79.36
21.4 |  | Ac-TQDAEDNTASH-NH2 [SEQ ID NO: 33, Ac-Thr-Gln-Asp-Ala-Glu-Asp-Asn-Thr-Ala-Ser-His-NH2] |  | 86.61

Continued, molecule first:

Molecule | inhibition at 100 µM [1] [%] | IC50 [1] [µM] | active TGF-β content in lung tissue, ratio to model group, Mean(%) ([2]; 3 mg/kg) | active TGF-β content in lung tissue, ratio to model group, Mean(%) [2] [%]
Ac-TQDAEDN-NH2 [SEQ ID NO: 06, Ac-Thr-Gln-Asp-Ala-Glu-Asp-Asn-NH2] | 17.7 |  |  | 76.76
Ac-TQDAEDPTA-NH2 [SEQ ID NO: 22, Ac-Thr-Gln-Asp-Ala-Glu-Asp-Pro-Thr-Ala-NH2] | 40.9 |  |  | 82.72
Ac-TQDAEDPTAS-NH2 [SEQ ID NO: 25, Ac-Thr-Gln-Asp-Ala-Glu-Asp-Pro-Thr-Ala-Ser-NH2] | 33 |  |  | 86.63
Ac-TQDPEDNTAS-NH2 [SEQ ID NO: 26, Ac-Thr-Gln-Asp-Pro-Glu-Asp-Asn-Thr-Ala-Ser-NH2] | 53.8 |  |  | 83.44
